The values that follow come from article PMC7995890, “Inhibition of Phosphodiesterase 5 Promotes the Aromatase-Mediated Estrogen Biosynthesis in Osteoblastic Cells by Activation of cGMP/PKG/SHP2 Pathway” (Frontiers in Endocrinology, 2021).

In the assay the target is PDE5A (Homo sapiens, UniProt O76074). The assay is described as follows: PDE-Glo assay with purified recombinant human PDE5A; supported by cellular thermal shift assay in HEK293T lysate. The class given is biochemical.

Turning to `COc1ccc(-c2oc3c(CC=C(C)C)c(OCc4ccccc4)cc(O)c3c(=O)c2O)cc1` [compound 14, 7-O-benzylicaritin], the IC50 (commonly the midpoint of a concentration-inhibition curve) was 9.91 µM.
